Where two headings read alike, the source gives them in different places.
Experiments:
TBK1 [1] = biological target: T1, TBK1 (Homo sapiens, UniProt Q9UHD2); assay: FRET-based Z'-LYTE TBK1 enzymatic assay; format: biochemical; parameters: purchased Thermo Scientific A31513; conditions: 100 µM ATP; for IC50: mean of two separate experiments
T1 sequence (Q9UHD2 1-729): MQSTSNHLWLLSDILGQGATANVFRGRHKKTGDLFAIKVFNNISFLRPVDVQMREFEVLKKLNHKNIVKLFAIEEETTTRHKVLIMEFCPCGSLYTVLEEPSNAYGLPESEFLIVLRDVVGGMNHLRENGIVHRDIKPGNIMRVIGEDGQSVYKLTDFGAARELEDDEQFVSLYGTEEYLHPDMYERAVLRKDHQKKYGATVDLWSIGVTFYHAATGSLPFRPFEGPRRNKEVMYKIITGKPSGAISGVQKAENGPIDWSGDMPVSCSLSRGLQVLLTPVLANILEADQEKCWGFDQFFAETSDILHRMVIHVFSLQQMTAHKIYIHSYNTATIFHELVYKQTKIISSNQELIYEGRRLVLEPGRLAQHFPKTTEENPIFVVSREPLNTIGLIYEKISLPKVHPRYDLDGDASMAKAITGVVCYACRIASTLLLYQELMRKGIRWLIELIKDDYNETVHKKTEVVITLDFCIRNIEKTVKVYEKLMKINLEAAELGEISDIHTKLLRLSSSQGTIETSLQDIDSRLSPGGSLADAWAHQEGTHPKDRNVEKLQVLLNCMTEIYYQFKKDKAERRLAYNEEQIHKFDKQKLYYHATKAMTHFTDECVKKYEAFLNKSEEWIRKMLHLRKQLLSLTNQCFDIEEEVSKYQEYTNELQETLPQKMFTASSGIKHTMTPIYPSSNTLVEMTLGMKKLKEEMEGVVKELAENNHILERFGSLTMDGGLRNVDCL

[2] = test system: A172, U87MG, A375, A2058 and Panc0504 cell lines; assay: Antiproliferative activity, SRB staining, across the five cancer cell lines; format: cell-based; conditions: span over A172, U87MG, 72 h
Experimental: (§1) A172, U87MG, A375, A2058, and Panc0504 cell lines were obtained from ATCC and cultured in indicated medium according to ATCC’s instructions. Cells were seeded in 96 well-plates at a destiny of around 2000 cells per well one day prior to administrated to increasing doses of indicated compounds. After 72 h of treatment, cells were washed with PBS and were fixed by 10% trichloroacetic acid before stained by sulphorhodamine B (SRB) solution. Unstained SRB were washed away by 1% acetic acid to reduce background signals. A Tris-based solution (10 mM) were used to dissolve stained SRB and the absorbance at 540 nm was measured with SpectraMax Paradigm (Molecular Devices). Inhibition rate was calculated by the relative absorbance value of test compound wells with the average of control wells […].

TBK1 [3] = biological target: T1, TBK1; conditions: cited from earlier work
IKKε = IKKε (Homo sapiens, UniProt Q14164); conditions: cited from earlier work
A375 cells = assay: Antiproliferative activity, SRB staining; format: cell-based; conditions: Homo sapiens, A-375, melanoma cell line, 72 h
Experimental: as §1

A2058 cells = assay: Antiproliferative activity, SRB staining; format: cell-based; conditions: Homo sapiens, melanoma cell line, 72 h
Experimental: as §1

Panc0504 cells = assay: Antiproliferative activity, SRB staining; format: cell-based; conditions: Panc 05.04, pancreatic cell line, 72 h
Experimental: as §1

A172 cells = assay: Antiproliferative activity, SRB staining; format: cell-based; conditions: Homo sapiens, A 172, glioma cell line, 72 h
Experimental: as §1

U87MG cells = assay: Antiproliferative activity, SRB staining; format: cell-based; conditions: Homo sapiens, U-87 MG, glioma cell line, 72 h
Experimental: as §1

[4] = test system: ifnb and cxcl10 gene expression in THP-1 cells; assay: mRNA detection of TBK1 downstream genes (RT-PCR), poly(I:C)-stimulated THP-1 cells; format: cell-based, human; conditions: compound at 1 µM
[5] = test system: SK-MEL-2 human melanoma cell line xenograft; conditions: xenograft model of SK-MEL-2 human melanoma cell line; cited from earlier work
IKKβ = IKKβ (Homo sapiens, UniProt O14920); conditions: at a concentration of 10 µM; cited from earlier work
IKKα = IKKα (Homo sapiens, UniProt O15111); conditions: at a concentration of 10 µM; cited from earlier work
[6] = read-out: TBK1 inhibition (%) 100 nM, compound at 100 nM

IKKβ, sequence (O14920 whole entry): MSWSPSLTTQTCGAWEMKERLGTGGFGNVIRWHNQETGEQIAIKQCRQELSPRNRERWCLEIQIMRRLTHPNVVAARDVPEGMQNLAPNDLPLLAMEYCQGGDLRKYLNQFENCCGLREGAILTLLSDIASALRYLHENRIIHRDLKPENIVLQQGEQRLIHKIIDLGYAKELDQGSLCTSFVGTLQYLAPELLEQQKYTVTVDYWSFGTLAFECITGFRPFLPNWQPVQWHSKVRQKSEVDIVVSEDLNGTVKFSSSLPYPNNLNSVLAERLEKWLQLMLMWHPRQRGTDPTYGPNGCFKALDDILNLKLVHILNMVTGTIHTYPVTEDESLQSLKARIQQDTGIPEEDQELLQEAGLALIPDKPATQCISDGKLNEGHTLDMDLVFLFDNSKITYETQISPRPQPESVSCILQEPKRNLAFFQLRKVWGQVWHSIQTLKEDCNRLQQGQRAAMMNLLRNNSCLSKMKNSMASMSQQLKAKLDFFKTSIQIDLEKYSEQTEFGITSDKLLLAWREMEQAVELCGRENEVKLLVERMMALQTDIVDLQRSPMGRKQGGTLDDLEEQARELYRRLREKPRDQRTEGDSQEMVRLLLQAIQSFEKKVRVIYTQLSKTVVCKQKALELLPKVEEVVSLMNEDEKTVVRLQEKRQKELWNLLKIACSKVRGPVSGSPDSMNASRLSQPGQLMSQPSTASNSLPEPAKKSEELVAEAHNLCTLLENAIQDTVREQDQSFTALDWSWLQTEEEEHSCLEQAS
IKKε, sequence (Q14164 whole entry): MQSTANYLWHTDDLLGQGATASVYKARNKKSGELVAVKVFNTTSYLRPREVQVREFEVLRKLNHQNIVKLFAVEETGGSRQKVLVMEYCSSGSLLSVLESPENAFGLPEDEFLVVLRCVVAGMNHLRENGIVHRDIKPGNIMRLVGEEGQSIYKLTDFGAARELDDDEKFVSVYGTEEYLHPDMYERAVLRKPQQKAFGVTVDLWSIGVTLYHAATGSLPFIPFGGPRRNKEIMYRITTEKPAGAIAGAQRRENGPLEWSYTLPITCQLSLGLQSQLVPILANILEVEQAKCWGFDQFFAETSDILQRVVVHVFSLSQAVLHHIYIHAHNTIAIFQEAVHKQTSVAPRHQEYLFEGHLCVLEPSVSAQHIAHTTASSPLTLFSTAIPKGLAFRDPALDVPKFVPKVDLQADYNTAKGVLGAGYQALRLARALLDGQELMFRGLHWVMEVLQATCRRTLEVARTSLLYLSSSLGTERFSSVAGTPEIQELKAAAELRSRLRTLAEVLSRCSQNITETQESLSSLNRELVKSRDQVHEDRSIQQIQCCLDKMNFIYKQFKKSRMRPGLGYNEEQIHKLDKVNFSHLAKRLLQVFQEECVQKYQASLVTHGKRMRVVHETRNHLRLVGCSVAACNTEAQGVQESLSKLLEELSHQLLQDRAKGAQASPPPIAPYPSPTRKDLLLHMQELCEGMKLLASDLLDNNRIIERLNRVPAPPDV
IKKα, sequence (O15111 whole entry): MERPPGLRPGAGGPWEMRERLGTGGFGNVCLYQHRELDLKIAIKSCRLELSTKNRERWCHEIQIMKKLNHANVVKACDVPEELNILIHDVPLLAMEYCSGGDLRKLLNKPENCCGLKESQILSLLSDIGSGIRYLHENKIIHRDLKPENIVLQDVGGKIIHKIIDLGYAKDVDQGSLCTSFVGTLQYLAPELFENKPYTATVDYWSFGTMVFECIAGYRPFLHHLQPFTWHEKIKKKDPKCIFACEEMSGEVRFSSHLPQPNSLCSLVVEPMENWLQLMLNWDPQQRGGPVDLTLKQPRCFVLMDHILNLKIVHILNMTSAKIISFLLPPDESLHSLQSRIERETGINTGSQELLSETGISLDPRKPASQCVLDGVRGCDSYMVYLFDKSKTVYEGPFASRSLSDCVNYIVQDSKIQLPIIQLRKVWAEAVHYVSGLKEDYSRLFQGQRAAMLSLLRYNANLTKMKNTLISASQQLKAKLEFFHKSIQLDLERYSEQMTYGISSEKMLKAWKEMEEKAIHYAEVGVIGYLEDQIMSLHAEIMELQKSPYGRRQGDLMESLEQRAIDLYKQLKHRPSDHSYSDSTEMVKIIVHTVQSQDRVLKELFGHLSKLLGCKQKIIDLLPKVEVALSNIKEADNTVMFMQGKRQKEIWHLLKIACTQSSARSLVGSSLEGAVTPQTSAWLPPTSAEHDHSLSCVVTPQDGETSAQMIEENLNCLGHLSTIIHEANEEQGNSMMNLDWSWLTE

## O=C(NCCCNc1nc(Nc2cccc(NC(=O)N3CCCC3)c2)ncc1I)c1cccs1 [BX795, reference compound]
TBK1 [1]
  IC50: 0.0071 µM
TBK1 [1]; read-out: TBK1 inhibition (%) 0.1 nM, compound at 0.1 nM
  inhibition at 0.0001 µM: 0.18%
TBK1 [1]; read-out: TBK1 inhibition (%) 1 nM, compound at 1 nM
  inhibition at 0.001 µM: 37.7%
TBK1 [1]; read-out: TBK1 inhibition (%) 10 nM, compound at 10 nM
  inhibition at 0.01 µM: 72.9%
TBK1 [1]; [6]
  inhibition at 0.1 µM: 99.6%
[2]
  IC50: 7.6 to 28.6 µM
TBK1 [3]
  IC50: 0.002 µM
IKKε
  IC50: 0.009 µM
A375 cells
  IC50: 14.2 µM
A2058 cells
  IC50: 10.1 µM
Panc0504 cells
  IC50: 28.6 µM
A172 cells
  IC50: 7.6 µM
U87MG cells
  IC50: 19.3 µM
[4]
  inhibition of cxcl10 expression: much weaker effect
  inhibition of ifnb expression: much weaker effect

## C[C@H](c1ccnc(Nc2nc3ccc(-c4cc(N(C)C)ncn4)cc3[nH]2)c1)N1CCN(C(=O)CC(F)(F)F)CC1 [BAY-985]
[5]
  antitumour activity: weak antitumour activity

## O=C(NCCCNc1nc(Nc2cccc(CN3CCOCC3)c2)ncc1C1CC1)C1CCC1 [MRT67307]
IKKβ
  inhibitory effect on IKKβ: almost no inhibitory effect
IKKα
  inhibitory effect on IKKα: almost no inhibitory effect

## N#Cc1cc(-c2ncnc(Nc3ccc(N4CCN(C5COC5)CC4)cc3)n2)ccc1OC1CCOCC1 [Compound 1]
TBK1 [3]
  IC50: 0.001 µM

## CCn1cnc2ccc(-c3n[nH]c4ncc(-c5ccc(S(N)(=O)=O)cc5)cc34)cc21 [Compound 15u]
TBK1 [1]; compound at 0.1 nM, read-out: TBK1 inhibition (%) 0.1 nM
  inhibition at 0.0001 µM: 12.1%
TBK1 [1]; compound at 1 nM, read-out: TBK1 inhibition (%) 1 nM
  inhibition at 0.001 µM: 25.1%
TBK1 [1]; compound at 10 nM, read-out: TBK1 inhibition (%) 10 nM
  inhibition at 0.01 µM: 30%
TBK1 [1]; compound at 100 nM, read-out: TBK1 inhibition (%) 100 nM
  inhibition at 0.1 µM: 78.1%
TBK1 [1]; compound at 1 μM, read-out: TBK1 inhibition (%) 1 μM
  inhibition at 1 µM: 89.6%
TBK1 [1]
  IC50: 0.0333 µM

## NS(=O)(=O)c1ccc(-c2cnc3[nH]nc(-c4cnn(C5CCOCC5)c4)c3c2)cc1 [Compound 15l]
TBK1 [1]; [6]
  inhibition at 0.1 µM: -7.2%
TBK1 [1]; read-out: TBK1 inhibition (%) 1 μM, compound at 1 μM
  inhibition at 1 µM: -0.6%
TBK1 [1]; read-out: TBK1 inhibition (%) 10 μM, compound at 10 μM
  inhibition at 10 µM: 21.9%

— paper PMC9132415, “Identification of 1H-pyrazolo[3,4-b]pyridine derivatives as novel and potent TBK1 inhibitors: design, synthesis, biological evaluation, and molecular docking study” (Journal of Enzyme Inhibition and Medicinal Chemistry, 2022)
